Source: patent publication US11612634B2 (priority 2020, dated 2023)
Where two headings read alike, the source gives them in different places.

Assays:
[1] = system: CCI-induced neuropathic pain rat model; assay: Analgesic effect on mechanical hyperalgesia (PWT) in CCI-induced neuropathic pain rat model; type: in vivo
Method: The chronic constriction nerve injury (CCI)-induced neuropathic pain rat model was built according to a published method (Bennett G J, et al. Pain, 1988). The experimental rats were anesthetized by intraperitoneal injection of 10 wt % chloral hydrate (300 mg/kg), and then placed on a super-clean bench, and the operation area was disinfected with iodophor.
The ligation tightness should be adjusted to cause slight twitching of a leg on an operated side of the rat without affecting the blood circulation of the epineurium. The wound was sutured layeredly and wiped with iodophor according to the postoperative situation. The rats were transferred back into a cage for rest upon fully recovering. The PWT was measured 5 days after modeling, where those with a significant lower PWT were considered as successful neuropathic pain rat models, and the undesirable rats were excluded.
(S1) A total of 15 healthy adult SD rats, weighing 180-220 g, were selected, numbered on tails and placed in the same cage.
(S2) The rats were raised in a measuring room for 2 h for adaptation.
The measurement was repeated 3-5 times for each rat at an interval of 5-10 min, and the results were averaged. Then the rats were allowed to rest for several hours and then adopted to build a CCI-induced neuropathic pain model.
(S4) The PWT was measured on the morning of the 3rd day and the 6th day after the modeling, and those unsuccessful models were removed. And on the 6th after the modeling, the successful rat models were randomly divided into 3 groups, where the group A was injected with normal saline; the group B was injected with 5 mg/kg of morphine; and the group C was intradermally injected with 8 μg/kg of the short peptide P10581 into the left hind paw. 1 h later, the PWT of each group was recorded when the left hind paw generated mechanical withdrawal. Each of the rats was measured 3-5 times at an interval of 5-10 min, and the PWTs were averaged as the actual PWT (unit: g). The drug injection was fixedly performed at 9:00 a.m. and 5:30 p.m. from the 6th day to the 14th day after modeling, and the PWT of each group was measured before and after administration every other day. On the 15th day after modeling, the group B was injected with 8 μg/kg of the short peptide P10581 and the group C was injected with 5 mg/kg of the morphine, and the PWT of the group B and group C was recorded when the mechanical withdrawal occurred to the left hind paw.
(1) 30 healthy adult SD rats, weighing 180-220 g, were selected to build a CCI-induced neuropathic pain model. On the 8th day after the modeling, successfully-established models were randomly divided into 6 groups, where the group A was injected with 0.45 μg/kg of the short peptide P10581; the group B was injected with 0.9 μg/kg of the short peptide P10581; the group C was injected with 1.8 μg/kg of the short peptide P10581; the group D was injected with 3.6 μg/kg of the short peptide P10581; the group E was injected with 7.2 μg/kg of the short peptide P10581; and the group F was injected with 8.5 μg/kg of the short peptide P10581. The PWT of each group was measured 1.5 h later.
(2) Each group was injected with 7.2 μg/kg of the short peptide P10581 at 5:30 p.m. on the 8th day after modeling, and then continuously injected from the 9th day to the 16th day 16 (injected with 7.2 μg/kg of the short peptide P10581 at 9:00 a.m. and 5:30 p.m. a day). The PWT of rats before and after administration in the morning was measured every other day.
(3) On the 17th day after modeling, the six groups were injected with different doses of the short peptide P10581, respectively, according to step (1). 1.5 h later, the PWT of each group was measured to evaluate the effect of dose.
(1) 15 healthy adult SD rats, weighing 180-220 g, were selected to build a CCI-induced neuropathic pain model.

[2] = system: morphine analgesic tolerance, neuropathic pain rat model; type: in vivo; settings: for analgesic effect of morphine restored: after 5-day continuous administration
Method: (1) 15 healthy adult SD rats, weighing 180-220 g, were selected to build a CCI-induced neuropathic pain model. 6 days after the modeling, successful models were randomly divided into 3 groups, where the group A was injected with 0.1 μg/kg of the short peptide P10581; the group B was injected with 5 mg/kg of the morphine; and the group C was injected with 0.1 μg/kg of the short peptide P10581, and then with 5 mg/kg of the morphine 30 min later. 1 h later, the PWT of each group was recorded.
(2) Each group was injected with the drug in the afternoon on the 6th day after the modeling, and from the 7th day to the 12th day, the drug administration was performed at 9:00 a.m. and 5:30 p.m. (5 mg/kg of morphine twice a day; and 0.1 μg/kg of the short peptide P10581 was administered 30 min before the morphine injection). The PWT of rats in each group before and after administration in the morning was measured every other day.
(1) 30 healthy adult SD rats, weighing 180-220 g, were selected to build a CCI-induced neuropathic pain model. Those successfully-established models were randomly divided into 6 groups on the 6th day, where the groups A was injected with normal saline; and the groups B-F were injected with 0.01 μg/kg, 0.025 μg/kg, 0.1 μg/kg, 0.2 μg/kg and 0.4 μg/kg of the short peptide P10581, respectively. 30 min later, the groups A-F were further injected with 5 mg/kg of the morphine, and 1 h later, the PWT of each group was recorded.
(2) Each group was injected with the drug in the afternoon on the 6th day after modeling, and from the 7th day to the 10th day, the drug administration was performed at 9:00 a.m. and 5:30 p.m. (injected twice a day consecutively for 5 days), and the PWT of each group before and after the administration in the morning was measured every other day.
In the FIG. 10B, ΔPWT (drug) and ΔPWT (Baseline) were calculated as follows: ΔPWT(drug)=PWT(post-drug)−PWT(pre-drug); and ΔPWT(Baseline)=PWT(before CCI)−PWT(after CCI).
The intensity of the relieving effect on the tolerance was represented by ΔPWT (drug)/ΔPWT (Baseline), where the ΔPWT (drug) indicated a difference between pain thresholds before and after Mor+P10581 injection in the morning.

[3] = 8 μg/kg i.d., twice a day, repeated

Compound	analgesic effect / tolerance after repeated injection ([1]; rat, in vivo)	analgesic effect of morphine after repeated P10581 ([1]; rat, in vivo)	analgesic effect of morphine alone ([2]; rat, in vivo)	analgesic effect on neuropathic pain threshold, low dose ([1]; 0.1 μg/kg i.d., twice a day)	IC50 before vs after repeated administration ([1]; 7.2 μg/kg i.d. repeated (FIG. 8D))	change of PWT after repeated high-dose administration ([1]; 7.2 μg/kg i.d., twice a day, 9 days, test doses 0.45-8.5 μg/kg)	analgesic effect in morphine-tolerant rats ([1]; 8 μg/kg i.d. on day 10 after repeated morphine 5 mg/kg)	analgesic effect on neuropathic pain [1, 3]	analgesic tolerance after repeated injection [1, 3]	administration dose at which analgesic effect reached the peak ([1]; neuropathic pain, i.d.)	effect on morphine analgesic tolerance ([2]; 0.1 μg/kg peptide 30 min before 5 mg/kg morphine, twice a day)	restoration of analgesic effect of morphine ([2]; 0.1 μg/kg peptide + 5 mg/kg morphine, 5th day)	analgesic effect of morphine restored, ΔPWT (drug)/ΔPWT (Baseline) ([2]; 0.2 μg/kg peptide, after 3-day consecutive injection of morphine)	analgesic effect of morphine restored ([2]; 0.2 μg/kg peptide)	effect on morphine analgesic tolerance ([2]; 0.4 μg/kg peptide + 5 mg/kg morphine (FIGS. 10A, 10B))	effect on morphine analgesic tolerance ([2]; 0.4 μg/kg peptide, after 3-day consecutive injection of morphine)	analgesic effect of morphine restored ([2]; 0.4 μg/kg peptide)	dose at which morphine analgesic tolerance is effectively relieved ([2]; neuropathic pain, rats)
CN1CC[C@]23c4c5ccc(O)c4O[C@H]2[C@@H](O)C=C[C@H]3[C@H]1C5 [morphine, reference compound]	eventually lost the analgesic effect	the same analgesic effect was still kept	almost completely disappeared															
WKCNPNDDKCCRPKLKC [P10581]				no effect on the threshold of neuropathic pain in rats	did not bring significant difference to the IC50	no obvious change occurred to the PWT	neuropathic pain threshold of rats can be reversed	neuropathic pain was alleviated	no analgesic tolerance occurred	7.2 µg/kg	partially relieved the morphine analgesic tolerance	restored by half	90.1%	higher than 60%	completely reversed	completely reverse the morphine analgesic tolerance	higher than 85%	≥ 0.01 µg/kg
